{"source": "paper PMC10319809", "about": "“Chronic UCN2 treatment desensitizes CRHR2 and improves insulin sensitivity” (Nature Communications, 2023)", "target": "T1, CRHR2 alpha (Homo sapiens, UniProt Q13324)", "T1 construct": "host or cells: HEK-TREX-CRHR2 alpha cells, non-induced", "T1 sequence (Q13324 1-411)": "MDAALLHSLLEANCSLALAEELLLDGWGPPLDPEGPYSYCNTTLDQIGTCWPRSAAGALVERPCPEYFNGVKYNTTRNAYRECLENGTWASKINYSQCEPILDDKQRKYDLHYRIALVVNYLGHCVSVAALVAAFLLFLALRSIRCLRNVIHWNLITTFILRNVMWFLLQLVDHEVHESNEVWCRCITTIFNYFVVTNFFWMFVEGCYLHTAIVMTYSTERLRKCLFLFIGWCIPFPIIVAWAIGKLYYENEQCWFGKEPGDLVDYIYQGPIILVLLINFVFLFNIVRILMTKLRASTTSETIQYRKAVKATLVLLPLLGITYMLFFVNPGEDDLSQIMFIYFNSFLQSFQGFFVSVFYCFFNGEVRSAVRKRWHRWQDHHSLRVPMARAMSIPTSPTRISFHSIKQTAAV", "assay": "HTRF cAMP assay in HEK-TREX-CRHR2 alpha cells, with or without UCN2 pre-treatment", "assay_type": "cell-based", "details": "n = 3", "method": "To determine whether CRHR2 functional desensitization in response to UCN2 occurred tissue-autonomously, we turned to CRHR2-transfected HEK 293 cells.\nTo measure cell-based CRHR2 agonist activity a HTRF (Homogenous Time-Resolved Fluorescence) cAMP detection kit (Cisbio cAMP dynamic 2 assay kit) was performed in non-induced HEK-TREX-CRHR2 alpha cells (Fisher Scientific). Cells were plated one day before the assay in 384-well plates at 1500 cells/well and assayed in adherent mode by removing the media, patting on paper towel and adding 10 µl of 1 µM of UCN2 or vehicle control for 1 h. Cells were gently washed 3 times with wash buffer and rested for 6 h in incubator. Following rest, cells were restimulated with titrating concentrations of UCN2 with IBMX, at a final concentration of 250 µM. Reactions continued for 30 min at 37 °C followed by addition of detection reagents and a one-hour minimum incubation at room temperature. HTRF, a competitive immunoassay, produces a fluorescence signal read with an Envision multi-plate reader using an excitation of 330 nm and emissions of 615 and 665 nm. By interpolation from a cAMP standard curve, raw data were converted to nm cAMP and then expressed as percent effect of 1 µM UCN2 in vehicle control pretreatment conditions.", "note": "Where no end group is shown, it is not given here.", "data": [{"substance": "IVLSLDVPIGLLQILLEQARARAAREQATTNARILARVGHC-NH2 (C-terminus assumed) [UCN2, Urocortin 2]", "values": [{"measurement": "cAMP response to subsequent UCN2 after UCN2 pre-treatment", "setting": "1 µM UCN2 for 1 h, wash, 6 h rest, restimulation", "value": "significantly blunts the cAMP activation response"}, {"measurement": "cAMP response to increasing concentrations", "setting": "CRHR2-transfected HEK 293 cells, 30 min at 37 °C, IBMX 250 µM", "value": "increases in a dose-dependent manner"}]}]}
